ChEMBL document CHEMBL1201862, “PubChem BioAssay data set” (2004)
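Each compound was tested at five concentrations against cells in 96-well plates for 48 hours. The concentration for 50% growth inhibition is given as GI50.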 Activity calls are given as the source filed them. Cut-off read from the data, not from the text of the source: active = GI50 up to about 1.1 µM and inactive = higher.

Experiments:
Assay in all cases: NCI anticancer screen, dose series, 48 h
[1] = tested on: 786-0
[2] = tested on: A498
[3] = tested on: A549
[4] = tested on: ACHN
[5] = tested on: BT-549
[6] = tested on: CAKI-1
[7] = tested on: CCRF-CEM
[8] = tested on: COLO 205
[9] = tested on: DU-145
[10] = tested on: EKVX
[11] = tested on: HCC 2998
[12] = tested on: HCT-116
[13] = tested on: HCT-15
[14] = tested on: HL-60
[15] = tested on: HOP-62
[16] = tested on: HOP-92
[17] = tested on: HT-29
[18] = tested on: Hs-578T
[19] = tested on: IGROV-1
[20] = tested on: K562
[21] = tested on: KM12
[22] = tested on: LOX IMVI
[23] = tested on: MCF7
[24] = tested on: MDA-MB-231
[25] = tested on: MDA-MB-435
[26] = tested on: MOLT-4
[27] = tested on: Malme-3M
[28] = tested on: NCI-H226
[29] = tested on: NCI-H23
[30] = tested on: NCI-H460
[31] = tested on: NCI-H522
[32] = tested on: NCI/ADR-RES
[33] = tested on: OVCAR-3
[34] = tested on: OVCAR-4
[35] = tested on: OVCAR-5
[36] = tested on: OVCAR-8
[37] = tested on: PC-3
[38] = tested on: RPMI-8226
[39] = tested on: RXF 393
[40] = tested on: SF-268
[41] = tested on: SF-295
[42] = tested on: SK-MEL-28
[43] = tested on: SK-MEL-2
[44] = tested on: SK-MEL-5
[45] = tested on: SK-OV-3
[46] = tested on: SN12C
[47] = tested on: SNB-19
[48] = tested on: SNB-75
[49] = tested on: SR
[50] = tested on: SW-620
[51] = tested on: T47D
[52] = tested on: TK-10
[53] = tested on: U-251
[54] = tested on: UACC-257
[55] = tested on: UACC-62
[56] = tested on: UO-31
[57] = tested on: M14
[58] = tested on: SF-539

In the case of `C=C1C(=O)O[C@H]2[C@H]3O[C@@H](C[C@@H]12)[C@@]1(C)CC[C@H](O1)[C@H](C)CCC[C@H]3C`, the GI50 [1] was 1.31 µM (inactive), the GI50 [2] was 1.71 µM (inactive) and the GI50 [3] was 2.16 µM (inactive). For the same compound, the GI50 [4] was 1.51 µM (inactive), the GI50 [5] was 0.811 µM (active) and the GI50 [6] was 1.28 µM (inactive). The GI50 [7] was 0.399 µM (active), the GI50 [8] was 1.75 µM (inactive) and the GI50 [9] was 1.52 µM (inactive). For the same compound, the GI50 [10] was 1.44 µM (inactive), the GI50 [11] was 1.28 µM (inactive) and the GI50 [12] was 1.04 µM (active). The GI50 [13] was 1.81 µM, the GI50 [14] was 0.237 µM (active) and the GI50 [15] was 4.74 µM (inactive). The GI50 [16] was 1.43 µM (inactive), the GI50 [17] was 1.29 µM (inactive) and the GI50 [18] was 2.64 µM (inactive). For the same compound, the GI50 [19] was 1.19 µM (inactive), the GI50 [20] was 1.44 µM (inactive) and the GI50 [21] was 2.18 µM (inactive). The GI50 [22] was 1.55 µM (inactive), the GI50 [23] was 1.77 µM (inactive) and the GI50 [24] was 1.65 µM (inactive). The GI50 [25] was 1.32 µM (inactive), the GI50 [26] was 1.23 µM (inactive) and the GI50 [27] was 1.72 µM (inactive). The GI50 [28] was 1.53 µM (inactive), the GI50 [29] was 1.75 µM (inactive) and the GI50 [30] was 1.76 µM (inactive). For the same compound, the GI50 [31] was 1.42 µM (inactive), the GI50 [32] was 1.53 µM (inactive) and the GI50 [33] was 1.1 µM (active). The GI50 [34] was 1.58 µM (inactive), the GI50 [35] was 1.67 µM (inactive) and the GI50 [36] was 1.38 µM (inactive). For the same compound, the GI50 [37] was 1.61 µM (inactive), the GI50 [38] was 0.512 µM (active) and the GI50 [39] was 2.15 µM (inactive). For the same compound, the GI50 [40] was 1.67 µM (inactive), the GI50 [41] was 4.82 µM (inactive) and the GI50 [42] was 1.63 µM (inactive). For the same compound, the GI50 [43] was 2.09 µM (inactive), the GI50 [44] was 1.42 µM (inactive) and the GI50 [45] was 7.38 µM (inactive). The GI50 [46] was 2.22 µM (inactive), the GI50 [47] was 10.1 µM (inactive) and the GI50 [48] was 1.63 µM (inactive). For the same compound, the GI50 [49] was 0.148 µM (active), the GI50 [50] was 1.46 µM (inactive) and the GI50 [51] was 2.21 µM (inactive). For the same compound, the GI50 [52] was 1.62 µM (inactive), the GI50 [53] was 1.5 µM (inactive) and the GI50 [54] was 1.91 µM (inactive). The GI50 [55] was 1.81 µM (inactive) and the GI50 [56] was 1.56 µM (inactive).
`COc1ccc(CCCNC(=O)c2cc(OC)c(OC)cc2CCO)cc1OC` was tested, and the GI50 [1] was > 100 µM (inactive), the GI50 [2] was > 100 µM (inactive) and the GI50 [3] was > 100 µM (inactive). For the same compound, the GI50 [4] was > 100 µM (inactive), the GI50 [5] was > 100 µM (inactive) and the GI50 [6] was > 100 µM (inactive). The GI50 [7] was > 10 µM (inactive), the GI50 [8] was > 100 µM (inactive) and the GI50 [9] was > 100 µM (inactive). The GI50 [10] was > 100 µM (inactive), the GI50 [11] was > 100 µM (inactive) and the GI50 [12] was > 100 µM (inactive). The GI50 [13] was over 100 µM, the GI50 [14] was > 100 µM (inactive) and the GI50 [15] was > 100 µM (inactive). For the same compound, the GI50 [16] was > 100 µM (inactive), the GI50 [17] was > 100 µM (inactive) and the GI50 [18] was > 100 µM (inactive). For the same compound, the GI50 [19] was > 100 µM (inactive), the GI50 [20] was > 100 µM (inactive) and the GI50 [21] was > 100 µM (inactive). The GI50 [22] was > 100 µM (inactive), the GI50 [57] was > 100 µM (inactive) and the GI50 [23] was > 100 µM (inactive). The GI50 [24] was > 100 µM (inactive), the GI50 [25] was > 100 µM (inactive) and the GI50 [26] was > 100 µM (inactive). The GI50 [28] was > 100 µM (inactive), the GI50 [29] was > 100 µM (inactive) and the GI50 [30] was > 100 µM (inactive). For the same compound, the GI50 [31] was > 100 µM (inactive), the GI50 [32] was > 100 µM (inactive) and the GI50 [33] was > 100 µM (inactive). The GI50 [34] was > 100 µM (inactive), the GI50 [35] was > 100 µM (inactive) and the GI50 [36] was > 100 µM (inactive). For the same compound, the GI50 [37] was > 100 µM (inactive), the GI50 [38] was > 100 µM (inactive) and the GI50 [39] was > 100 µM (inactive). For the same compound, the GI50 [40] was > 100 µM (inactive), the GI50 [41] was > 100 µM (inactive) and the GI50 [58] was > 100 µM (inactive). The GI50 [42] was > 100 µM (inactive), the GI50 [43] was > 100 µM (inactive) and the GI50 [44] was > 100 µM (inactive). The GI50 [45] was > 100 µM (inactive), the GI50 [46] was > 100 µM (inactive) and the GI50 [47] was > 100 µM (inactive). For the same compound, the GI50 [48] was > 100 µM (inactive), the GI50 [49] was > 100 µM (inactive) and the GI50 [50] was > 100 µM (inactive). For the same compound, the GI50 [51] was > 100 µM (inactive), the GI50 [52] was > 100 µM (inactive) and the GI50 [53] was > 100 µM (inactive). The GI50 [54] was > 100 µM (inactive), the GI50 [55] was > 100 µM (inactive) and the GI50 [56] was > 100 µM (inactive).
